The test system of one assay is ATXN3 pre-mRNA. The assay can be described thus: RT-qPCR Assay to Quantify Exon 4 Skipping in ATXN3 pre-mRNA in Cells. As to conditions: cells incubated with compound 24 h, 7-point concentration curve, GAPDH control. The format is cell-based. The protocol:
RT-qPCR Assay to Quantify Exon 4 Skipping in ATXN3 pre-mRNA in Cells Test compounds were serially diluted 3.16-fold in 100% DMSO to generate a 7-point concentration curve. Aliquots of 0.5 μL of diluted compounds were transferred to a 96-well flat bottom plate by a liquid handler. An aliquot of 0.5 μL DMSO was also transferred to separate wells and used as controls. Duplicate samples were set up for each compound concentration and for the DMSO control.
Cells were thawed and incubated in cell culture media (DMEM, 10% FBS, and 1% antibiotic cocktail) for 72 h. Cells were trypsinized, counted, and re-suspended to a concentration of 100,000 cells/mL in cell culture media. A 100 μL aliquot of the cell suspensions were plated at 10,000 cells per well in the compound containing 96 well microtiter plate and incubated for in a cell culture incubator (37° C., 5% CO2, 100% relative humidity).
After 24 h, media was aspirated from the cells and 50 μL of the RCL2 lysis buffer (10 mM Tris-HCL pH 7.4, 150 mM NaCl, 0.33% IGEPAL® CA-630) was added to each well and incubated at room temperature for 1 min. Chilled nuclease free water (50 μL per well) was added and the plates were immediately transferred on ice. After 1 min on ice, plates were frozen at −80° C. overnight.
Preparation of RT-qPCR Reaction Mixture:
An aliquot of 2 μL/well of the cell lysates was transferred using the liquid handler to the Armadillo 384-Well PCR plate containing 8 μL/well of the RT-qPCR reaction mixture that was prepared as detailed above. The plates were then sealed with MicroAmp™ Optical Adhesive Film followed by spinning down for 1 min and placed in the CFX384 thermocycler (BioRad).
The RT-qPCR was carried out at the following temperatures for the indicated time: • Step 1: 48° C. (30 min) • Step 2: 95° C. (10 min) • Step 3: 95° C. (15 sec) • Step 4: 60° C. (1 min); then, repeated Steps 3 and 4 for a total of 40 cycles.
The percent exon 4 skipping was calculated for each dose of compound treatment using Equations 1 and 2.
Data were fit to a dose response curve and the IC50 was interpolated using XLfit® statistical and curve fitting package.
An IC50 value between >2.0 μM and ≤3.0 μM is indicated by one star (*). […] IC50 value between >0.5 μM and ≤1.0 μM is indicated by four stars (****). An IC50 value ≤0.5 μM is indicated by five stars (*****).
(Quantitative PCR measures a nucleic acid by following its amplification.)

The subject of assay [1] is Total ATXN3 (tATXN3) protein. Kind of assay: Endogenous Total ATXN3 (tATXN3) Protein Assay (MSD immunoassay of cell lysates). The format is cell-based. As to conditions: cells incubated with compound 48 h; 7-point concentration curve; MSD detection in cell lysate. The protocol:
Endogenous Total ATXN3 (tATXN3) Protein Assay
Meso Scale Discovery (MSD) 96-well or 384-well plates were coated overnight at 4° C. with Ataxin 3 mouse monoclonal antibody (Invitrogen, MA3-082) at a concentration of 0.5 μg/mL in PBS (30 μL per well). Plates were then washed three times with 300 μL wash buffer (0.05% TWEEN®-20, polyethylene glycol sorbitan monolaurate, in PBS) and blocked (Meso Scale Diagnostics, R93BA-1; 5% BSA in PBS) for 2 h at room temperature with rotational shaking and then washed three times with wash buffer.
Test compounds were serially diluted 3.16-fold in 100% DMSO to generate a 7-point concentration curve. Aliquots of 0.5 μL of diluted compounds were transferred to a 96-well flat bottom plate by a liquid handler. An aliquot of 0.5 μL DMSO was also transferred to separate wells and used as controls. Duplicate samples were set up for each compound concentration and for the DMSO control.
Cells were thawed and incubated in cell culture media (DMEM, 10% FBS, and 1% antibiotic cocktail) for 72 h. Cells were trypsinized, counted, and re-suspended to a concentration of 100,000 cells/mL in cell culture media. A 100 μL aliquot of the cell suspensions were plated at 10,000 cells per well in the compound containing 96 well microtiter plate and incubated for in a cell culture incubator (37° C., 5% CO2, 100% relative humidity). After 48 h, the medium was removed and 50-100 μL of lysis buffer (Meso Scale Diagnostics, R60TX-2) containing 1× halt protease inhibitor cocktail of (Thermo Scientific, Halt™ Protease Inhibitor Cocktail, 78430) per well was added to cells to provide a “cell lysate”. The plate was placed on a shaker at 4° C. for 30 minutes, then stored at −80° C.
Cell lysate samples (25 μL) were transferred to the antibody-coated MSD plate and incubated overnight at 4° C. After removal of the lysates, the plate was washed three times with wash buffer, and 25 μL of Ataxin 3 recombinant rabbit monoclonal antibody (Invitrogen, #702788) secondary antibody (diluted to 0.25 μg/mL in 0.05% TWEEN®-20 in blocking buffer) was added to each well and incubated with shaking for 1-2 h at room temperature. Following incubation with the secondary antibody, the wells were rinsed with wash buffer and then […] Anti Rabbit Antibody Goat SULFO-TAG Labeled (Meso Scale Diagnostics, R32AB-1) detecting antibody (diluted to 0.25 μg/mL in 0.05% TWEEN®-20 in blocking buffer) was added to each well and incubated with shaking for 1 h at room temperature. After rinsing three times with wash buffer, 150 μL of Read Buffer T with surfactant (tris-based buffer containing tripropylamine, Meso Scale Diagnostics, R92TC-1) were added to each empty well, and the plate was imaged on a SI 6000 imager (MSD) according to manufacturers' instructions provided for 96- or 384-well plates.

The structures appear in SMILES notation.

Consider `Clc1cc(NCc2ccco2)c2scc(Cl)c2n1` [Cpd 6, 3,5-dichloro-N-[(furan-2-yl)methyl]thieno[3,2-b]pyridin-7-amine], for which the “IC50, exon 4 skipping in ATXN3 pre-mRNA” value with ATXN3 pre-mRNA is “inactive”. Also, the “IC50 (average), total ATXN3 protein” value in assay [1] is “inactive”.
In the case of `Clc1cc(NCc2ccco2)c2scc(Br)c2n1` [Cpd 7, 3-bromo-5-chloro-N-[(furan-2-yl)methyl]thieno[3,2-b]pyridin-7-amine], the IC50 (commonly the concentration needed to halve the response being measured) in the assay with ATXN3 pre-mRNA lay within 1 to 1.5 µM. The “IC50 (average), total ATXN3 protein” value in assay [1] was “inactive”.
In the case of `C[C@H](N)Cc1cc2nc(Cl)cc(NCc3ccco3)c2s1` [Cpd 16, 2-[(2S)-2-aminopropyl]-5-chloro-N-[(furan-2-yl)methyl]thieno[3,2-b]pyridin-7-amine], the IC50 (with ATXN3 pre-mRNA; in assay [1]) was ≤ 0.5 µM in each case.
As to `N[C@@H](CO)Cc1cc2nc(Cl)cc(NCc3ccco3)c2s1` [Cpd 17, (2R)-2-amino-3-(5-chloro-7-{[(furan-2-yl)methyl]amino}thieno[3,2-b]pyridin-2-yl)propan-1-ol], the IC50 (with ATXN3 pre-mRNA; in assay [1]) was ≤ 0.5 µM in each case.
On to `Cc1c(C[C@H](C)N)sc2c(NCc3ccco3)cc(Cl)nc12` [Cpd 18, 2-[(2S)-2-aminopropyl]-5-chloro-N-[(furan-2-yl)methyl]-3-methylthieno[3,2-b]pyridin-7-amine], for which the IC50 (in the assay with ATXN3 pre-mRNA; in assay [1]) was ≤ 0.5 µM in each case.
Turning to `Cc1c(C[C@H](C)N)sc2c(NCc3ccccc3F)cc(Cl)nc12` [Cpd 29, 2-[(2S)-2-aminopropyl]-5-chloro-N-[(2-fluorophenyl)methyl]-3-methylthieno[3,2-b]pyridin-7-amine], the IC50 (in the assay with ATXN3 pre-mRNA; in assay [1]) was ≤ 0.5 µM throughout.
For `Cc1c(C[C@H](C)N)sc2c(NCc3ccco3)ccnc12` [Cpd 34, 2-[(2S)-2-aminopropyl]-N-[(furan-2-yl)methyl]-3-methylthieno[3,2-b]pyridin-7-amine], the IC50 (in the assay with ATXN3 pre-mRNA; in assay [1]) was ≤ 0.5 µM each time.
Turning to `Cc1c(C[C@H](C)N)sc2c(NCc3ccncc3F)cc(Cl)nc12` [Cpd 35, 2-[(2S)-2-aminopropyl]-5-chloro-N-[(3-fluoropyridin-4-yl)methyl]-3-methylthieno[3,2-b]pyridin-7-amine], the IC50 (in the assay on ATXN3 pre-mRNA; in assay [1]) was ≤ 0.5 µM throughout.
`C[C@H](N)Cc1sc2c(NCc3ccco3)cc(Cl)nc2c1Cl` [Cpd 36, 2-[(2S)-2-aminopropyl]-3,5-dichloro-N-[(furan-2-yl)methyl]thieno[3,2-b]pyridin-7-amine]: the IC50 (in the assay with ATXN3 pre-mRNA; in assay [1]) was ≤ 0.5 µM each time.
Turning to `N[C@@H](CO)Cc1sc2c(NCc3ccco3)cc(Cl)nc2c1Cl` [Cpd 39, (2R)-2-amino-3-(3,5-dichloro-7-{[(furan-2-yl)methyl]amino}thieno[3,2-b]pyridin-2-yl)propan-1-ol], the IC50 (in the assay on ATXN3 pre-mRNA; in assay [1]) was ≤ 0.5 µM in each case.
Regarding `COC[C@H](N)Cc1sc2c(NCc3ccco3)cc(Cl)nc2c1Cl` [Cpd 40, 2-[(2R)-2-amino-3-methoxypropyl]-3,5-dichloro-N-[(furan-2-yl)methyl]thieno[3,2-b]pyridin-7-amine], the IC50 (with ATXN3 pre-mRNA; in assay [1]) was ≤ 0.5 µM in each case.
As for `N[C@@H](CO)Cc1sc2c(NCc3ccco3)cc(Cl)nc2c1Br` [Cpd 41, (2R)-2-amino-3-(3-bromo-5-chloro-7-{[(furan-2-yl)methyl]amino}thieno[3,2-b]pyridin-2-yl)propan-1-ol], the IC50 (in the assay with ATXN3 pre-mRNA; in assay [1]) was ≤ 0.5 µM in each case.
On to `CN[C@@H](C)Cc1sc2c(NCc3ccco3)cc(Cl)nc2c1C` [Cpd 42, 5-chloro-N-[(furan-2-yl)methyl]-3-methyl-2-[(2S)-2-(methylamino)propyl]thieno[3,2-b]pyridin-7-amine], for which the IC50 in the assay on ATXN3 pre-mRNA is 0.5 to 1 µM; in assay [1], ≤ 0.5 µM.
Regarding `COC[C@H](N)Cc1sc2c(NCc3ccco3)cc(Cl)nc2c1Br` [Cpd 44, 2-[(2R)-2-amino-3-methoxypropyl]-3-bromo-5-chloro-N-[(furan-2-yl)methyl]thieno[3,2-b]pyridin-7-amine], the IC50 (in the assay on ATXN3 pre-mRNA; in assay [1]) was ≤ 0.5 µM each time.
For `COC[C@H](N)Cc1sc2c(NCc3ccco3)cc(Cl)nc2c1C` [Cpd 45, 2-[(2R)-2-amino-3-methoxypropyl]-5-chloro-N-[(furan-2-yl)methyl]-3-methylthieno[3,2-b]pyridin-7-amine], the IC50 (in the assay on ATXN3 pre-mRNA; in assay [1]) was ≤ 0.5 µM throughout.
Consider `C[C@H](N)Cc1sc2c(NCc3ccco3)cc(Cl)nc2c1C1CC1` [Cpd 51, 2-[(2S)-2-aminopropyl]-5-chloro-3-cyclopropyl-N-[(furan-2-yl)methyl]thieno[3,2-b]pyridin-7-amine], for which the IC50 (in the assay with ATXN3 pre-mRNA; in assay [1]) was ≤ 0.5 µM each time.
For the molecule `C[C@H](N)Cc1sc2c(NCc3cccs3)cc(Cl)nc2c1Cl` [Cpd 52, 2-[(2S)-2-aminopropyl]-3,5-dichloro-N-[(thiophen-2-yl)methyl]thieno[3,2-b]pyridin-7-amine], the IC50 (with ATXN3 pre-mRNA; in assay [1]) was ≤ 0.5 µM in each case.
On to `C[C@H](N)Cc1sc2c(NCc3cccs3)cc(Cl)nc2c1Br` [Cpd 53, 2-[(2S)-2-aminopropyl]-3-bromo-5-chloro-N-[(thiophen-2-yl)methyl]thieno[3,2-b]pyridin-7-amine], for which the IC50 (in the assay on ATXN3 pre-mRNA; in assay [1]) was ≤ 0.5 µM each time.
For the molecule `Cc1c(C[C@H](C)N)sc2c(NCc3cccs3)cc(C#N)nc12` [Cpd 54, 2-[(2S)-2-aminopropyl]-3-methyl-7-{[(thiophen-2-yl)methyl]amino}thieno[3,2-b]pyridine-5-carbonitrile], the IC50 (in the assay with ATXN3 pre-mRNA; in assay [1]) was ≤ 0.5 µM throughout.
`Cc1c(C[C@H](C)N)sc2c(NCc3nccs3)cc(Cl)nc12` [Cpd 57, 2-[(2S)-2-aminopropyl]-5-chloro-3-methyl-N-[(1,3-thiazol-2-yl)methyl]thieno[3,2-b]pyridin-7-amine]: the IC50 (in the assay on ATXN3 pre-mRNA; in assay [1]) was ≤ 0.5 µM throughout.
For the molecule `Cc1c(C[C@@H](N)CO)sc2c(NCc3ccco3)cc(Cl)nc12` [Cpd 58, (2R)-2-amino-3-(5-chloro-7-{[(furan-2-yl)methyl]amino}-3-methylthieno[3,2-b]pyridin-2-yl)propan-1-ol], the IC50 (in the assay with ATXN3 pre-mRNA; in assay [1]) was ≤ 0.5 µM in each case.
On to `Cc1c(C[C@H](N)CF)sc2c(NCc3ccco3)cc(Cl)nc12` [Cpd 59, 2-[(2S)-2-amino-3-fluoropropyl]-5-chloro-N-[(furan-2-yl)methyl]-3-methylthieno[3,2-b]pyridin-7-amine], for which the “IC50, exon 4 skipping in ATXN3 pre-mRNA” value in the assay on ATXN3 pre-mRNA was “inactive”. The “IC50 (average), total ATXN3 protein” value in assay [1] was “inactive”.

The values are drawn from patent US20240051968A1, “METHODS FOR TREATING SPINOCEREBELLAR ATAXIA TYPE 3” (PTC Therapeutics, Inc., priority 2021, published 2024).
